Data from patent US4264734A, “Process for producing antibiotic desacetyl 890A10” (Merck & Co., Inc., priority 1979, dated 1981).

Key:
[1] = test system: Vibrio percolans ATCC 8461; assay: Assay for 890 Assay Units, agar plate disc-diffusion method, cephaloridine as standard; assay type: cell-based; conditions: 25 mm. zone of inhibition on a 5 ml. plate
Experimental: II. Assay Procedure for Determining "890 Assay Units" A conventional agar plate disc-diffusion method is employed using Vibrio percolans ATCC 8461 as tester organism. Cephaloridine is employed as a standard. Plates containing Vibrio percolans ATCC 8461 are prepared as follows. A culture of Vibrio percolans ATCC 8461 is incubated in nutrient broth-yeast extract overnight on a rotary shaker at 28° C. and then diluted to a density of 60% transmittance at 660 nm. A 33.2 ml. portion of this diluted culture is added to 1 liter of a medium composed of nutrient agar plus 0.2% yeast extract maintained at 46° C. The inoculated agar-containing medium is poured into 100×15 mm. plastic-petri dishes, 10 ml. per dish, chilled, and maintained at 2°-4° C. for up to 5 days before use. The concentration of cephaloridine which is equivalent to 1 unit/ml. of 890A1 is determined by assay on plates prepared as above, but containing 5 ml. of inoculated medium per plate, as follows. Four concentrations of cephaloridine constitute the standard--3.12, 6.25, 12.5 and 25 mcg per ml. with the 12.5 mcg per ml. as a reference solution. The zone diameters on a 5 ml. plate for the standard are as follows: A unit is defined as the amount of antibiotic per ml. producing a 25 mm. zone of inhibition on a 5 ml. plate as described in section I above. […]

[2] = test system: Staphylococcus aureus ATCC 6538P; assay: Electrophoresis followed by bioactivity on Staphylococcus aureus assay plate; assay type: cell-based; conditions: after incubation of 890A10 with cell sonicate and electrophoresis at pH 7.1; 37° C., 18 hours
Experimental: The flasks are shaken at 28° C. on a 220 rpm (2" throw) shaker for 4 days. A 30 ml. portion from each flask is centrifuged for 15 minutes at 8,000 rpm. The supernatant portion is removed, leaving only enough to form a thick suspension of cells and media solids. Half of the suspension is subjected to ultrasonic disruption using a Branson Instrument Model LS-75 Sonifier with a 1/2 inch probe. The input power is set at position No. 4, and four successive 15 second cycles of irradiation are used, while chilling the suspension in ice water during and between disruption. To test for the presence of N-acetyl-890A10 amidohydrolase activity, a 10-μl. portion of the sonicate is mixed with 25 μl. of an 890A10 solution containing 500 μg. per ml. Controls containing antibiotic and buffer alone; and sonicated cells and buffer without antibiotic are also run. After incubation overnight at 28° C., 10 μl. quantities are applied to Schleicher and Schuell No. 2043-B paper. Using 0.03 M potassium phosphate buffer pH 7.1, a voltage gradient of 50 volts/cm. is applied for 30 minutes. The paper is placed on a Staphylococcus aureus ATCC 6538P plate and incubated at 37° C. for 18 hours. […]
The flask is shaken at 28° C. on a 220 rpm (2-inch throw) shaker for four days. […] After incubation overnight at 28° C., 10-μl. quantities are applied to Schleicher & Schuell No. 2043-B paper. […]

[3] = Stability under acidic conditions in aqueous solution; assay type: physicochemical
[4] = test system: gram-positive and gram-negative bacteria; assay: Antibacterial activity (general statement); assay type: cell-based; conditions: no test values printed

stability under acidic conditions [3]	SMILES	concentration considered equivalent to 1 unit of 890A1 per ml [1] [mcg per ml.]	bioactive spot on Staphylococcus aureus plate [2]	antibacterial activity [4]
–	O=C(Cc1cccs1)N[C@@H]1C(=O)N2C(C(=O)[O-])=C(C[n+]3ccccc3)CS[C@H]12 [cephaloridine]	12.5	–	–
unstable	CC(=O)NCCSC1=C(C(=O)O)N2C(=O)C(C(C)OS(=O)(=O)O)C2C1 (centres unmarked) [890A10]	–	bioactive	–
–	CC(OS(=O)(=O)O)C1C(=O)N2C(C(=O)O)=C(SCCN)CC12 (centres unmarked) [desacetyl 890A10]	–	bioactive	active against various gram-positive and gram-negative bacteria
